Assay results: patent US8268369B2, “Compositions and methods for treating hypercholesterolemia using Ortanique peel extract” (The University of the West Indies, priority 2008, dated 2012)
Marks after values point to notes of the source that are not given here.

Assays:
glutathione transferase = assay: Glutathione transferase activity in organs of rats; type: in vivo; conditions: hypercholesterolemic rats
glutathione peroxidase = assay: Glutathione peroxidase activity in organs of rats; type: in vivo; conditions: hypercholesterolemic rats
[1] = tested on: diet-induced hypercholesterolemic rats; assay: Kidney function: serum creatinine and urea; conditions: comparison among the groups
glutathione reductase = assay: Glutathione reductase activity in organs of rats; type: in vivo; conditions: hypercholesterolemic rats

O=C(O)c1cccnc1 [niacin]
Glutathione Transferase Activity, Brain (glutathione transferase; brain): 0.28 ± 0.04^a nmol/min/mg protein | Glutathione Transferase Activity, Heart (glutathione transferase; heart): 0.21 ± 0.011^a nmol/min/mg protein | Glutathione Transferase Activity, Kidney (glutathione transferase; kidney): 0.20 ± 0.05^b nmol/min/mg protein | Glutathione Transferase Activity, Spleen (glutathione transferase; spleen): 0.16 ± 0.07^b nmol/min/mg protein | Glutathione Peroxidase Activity, Brain (glutathione peroxidase; brain): 0.59 ± 0.18^a nmol/min/mg protein | Glutathione Peroxidase Activity, Heart (glutathione peroxidase; heart): 5.14 ± 0.63^a nmol/min/mg protein | Glutathione Peroxidase Activity, Kidney (glutathione peroxidase; kidney): 3.35 ± 1.30^a nmol/min/mg protein | Glutathione Peroxidase Activity, Spleen (glutathione peroxidase; spleen): 0.21 ± 0.034^a nmol/min/mg protein | level of serum creatinine [1]: no significant differences | level of serum urea [1]: no significant differences | Glutathione Reductase Activity, Brain (glutathione reductase; brain): 14.95 ± 1.67^a nmol/min/mg protein | Glutathione Reductase Activity, Heart (glutathione reductase; heart): 12.53 ± 0.85^a nmol/min/mg protein | Glutathione Reductase Activity, Kidney (glutathione reductase; kidney): 12.36 ± 0.10^a nmol/min/mg protein | Glutathione Reductase Activity, Spleen (glutathione reductase; spleen): 49.48 ± 3.32^a nmol/min/mg protein
